Results published in patent US11331379B2, “Compositions and methods for regulating pancreatic beta cell function using adipsin” (Dana-Farber Cancer Institute, Inc., priority 2014, dated 2022).

Experiments:
murine islets = experiment: static glucose-stimulated insulin secretion (GSIS) assay in isolated islets; format: cell-based, mouse; details: for enhancement of insulin secretion: islets from WT mice on chow diet
Procedure: (§1) Recombinant C3a and C5a proteins (R&D Systems, Minneapolis, Minn., USA) were used at a concentration of 100 nM. Anti-adipsin antibody for Western blot analysis was from Santa Cruz Biotechnology, Santa Cruz, Calif., USA). Antibodies to C3aR1 (Santa Cruz Biotechnology), C5aR1 (Biolegend, San Diego, Calif., USA) and C5L2 (Hycult Biotechnology, Plymouth Meeting, Pa., USA) were used for flow cytometry. RNA isolation and reverse transcription were performed with TRIzol® (Life Technologies), RNeasy (Qiagen, Valencia, Calif., USA) and cDNA synthesis (Agilent Technologies, Santa Clara, Calif., USA) kits. qPCR reactions were done with SYBR green on an ABI PRISM® 7900HT real time PCR system (Life Technologies).
Islets were isolated from pancreata of the indicated genotype with collagenase digestion as previously described (Danial et al. (2008) Nat. Med. 14:144-153). For static incubation (batch release) assays, islets were handpicked and placed into basal Krebs buffer containing 3 mM glucose followed by transfer into Krebs solution containing the indicated concentrations of glucose or secretagogues. After 45 min incubation at 37° C., the islets were pelleted and the supernatant was collected for insulin measurement. The pellet was solubilized to assess intracellular insulin content. Insulin was measured by ELISA using mouse insulin as a standard (Crystal Chem Inc., Downers Grove, Ill., USA).

C3aR1 [1] = target: T1, C3aR1 (Mus musculus, UniProt O09047); experiment: GSIS assay in islets from wild-type and C3aR1-deficient mice with or without C3a; format: cell-based; details: WT versus C3aR1-deficient islets
T1 construct: endogenous in cells; host or cells: db/db mice (Jackson Laboratories, Stock 000697), whole animal
T1 sequence (O09047 1-477): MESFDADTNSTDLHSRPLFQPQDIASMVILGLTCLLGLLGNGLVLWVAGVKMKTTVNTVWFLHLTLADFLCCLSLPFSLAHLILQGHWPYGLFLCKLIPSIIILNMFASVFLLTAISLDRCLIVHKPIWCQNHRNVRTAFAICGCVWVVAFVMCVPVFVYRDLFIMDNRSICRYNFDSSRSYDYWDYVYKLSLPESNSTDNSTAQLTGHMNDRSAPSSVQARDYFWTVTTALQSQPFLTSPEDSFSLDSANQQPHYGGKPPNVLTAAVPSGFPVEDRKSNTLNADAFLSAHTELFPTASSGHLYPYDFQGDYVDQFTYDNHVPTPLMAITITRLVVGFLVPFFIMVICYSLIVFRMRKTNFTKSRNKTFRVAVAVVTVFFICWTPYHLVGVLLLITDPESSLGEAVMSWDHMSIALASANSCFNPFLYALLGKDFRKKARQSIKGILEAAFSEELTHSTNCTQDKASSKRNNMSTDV
Text: Panels A and B show the relative expression of Adipsin (Panel A) and C3 (Panel B) in liver, quadriceps muscle (quad), islets, epididymal (epi) and inguinal (ing) fat. Samples were quantitated by qPCR. Panels C-E show the results of flow cytometry performed on islet cells with antibodies to the complement/anaphylatoxin receptors C3aR1 (Panel C), C5aR1 (Panel D), and C5L2 (Panel E). Panels F-G show the results of isolated islets from WT mice on a chow diet (Panel F) or HFD (Panel G) subjected to a GSIS assay in the presence or absence of recombinant C3a and C5a with the indicated concentrations of glucose. Panels H and I show the results of db/db mice transduced with lacZ or adipsin adenovirus ([…]) treated with vehicle or C3aR antagonist (SB 290157) at a dose of 30 mg/kg b.i.d. for 3 days and subjected to an i.p. GTT with measurements of blood glucose concentrations (Panel H) and plasma insulin levels (Panel I) at the indicated times. Statistics for GTT assays between groups: lacZ/vehicle vs. adipsin/vehicle, p=0.05; adipsin/vehicle vs. adipsin/SB 290157, p<0.01; lacZ/SB 290157 vs. adipsin/vehicle, p<0.01. […]
Islets were isolated from pancreata of the indicated genotype with collagenase digestion as previously described (Danial et al. (2008) Nat. Med. 14:144-153). […] Insulin was measured by ELISA using mouse insulin as a standard (Crystal Chem Inc., Downers Grove, Ill., USA).

islets [2] = experiment: oxygen consumption rate (OCR) of islets, XF24 analyzer; format: cell-based, mouse
Procedure: as §1
Real-time measurements of mitochondrial oxygen consumption rate (OCR) were performed using the XF24 extracellular flux analyzer instrument and the AKOS algorithm built in the XF24 v1.7.0.74 software (Seahorse Bioscience, Inc., Billerica, Mass., USA). Islets were rinsed with sodium bicarbonate-free DMEM supplemented with 0.5% BSA and 3 mM glucose and 60 islets were distributed per well and recounted for OCR measurements. After baseline measurements, substrates or inhibitors of interests were added in single 50 μl injections delivered through individual injection ports. […] The respiratory rate of each islet sample was measured at 37° C. and analyzed using the Seahorse XF24 v1.5.0.69 software.

islets [3] = experiment: cytoplasmic free Ca2+ measurement in perifused islets (Fura-2); format: cell-based, mouse
Procedure: as §1
For measurements of cytoplasmic free Ca^2+ concentration, islets were loaded with 2 μM Fura-2/AM (Molecular Probes, Eugene, Oreg., USA) for 60 min. in the presence or absence of C3a in a buffer containing (in mM) 125 NaCl, 5.9 KCl, 1.28 CaCl2, 1.2 MgCl2, 25 HEPES, and 3 glucose and 0.1% BSA (pH 7.4). After loading, a single islet was transferred to an open perifusion chamber maintained at 37° C. and [Ca^2+], was measured as the 340/380 nm fluorescence ratio using a Spex FluoroLog® spectrophotometer coupled to a Zeiss Axiovert 35 M microscope with a Zeiss Fluar 40×/1.30 oil objective (Carl Zeiss, Gottingen, Germany). Concentrations of 20 mM glucose and 50 mM KCl (in the presence of 3 mM glucose) were used for islet stimulation.

C3aR1 [4] = target: T1, C3aR1; experiment: C3aR1 antagonist treatment of adipsin-adenovirus-transduced db/db mice, i.p. GTT and plasma insulin; format: in vivo
Text: Wild-type (WT) and Adipsin^−/− mice (from G. Stahl, Brigham and Women's Hospital, Boston, Mass., USA) were backcrossed 7-10 generations to C57BL/6 (B6) background. Control littermate mice from same backcrossed generations were used for experiments. B6 mice were fed a regular chow diet or a 60% kCal high fat diet (Research Diets, New Brunswick, N.J., USA) for the indicated times. db/db mice (Stock 000697) were purchased from Jackson laboratories (Bar Harbor, Me., USA). For adenoviral expression studies, mice were injected intravenously with lacZ or adipsin-expressing pAd adenoviral vectors (Life Technologies, Grand Island, N.Y., USA) and assayed 5 days later. For C3aR1 antagonist experiments, SB 290157 (N^2-[(2,2-Diphenylethoxy)acetyl]-L-arginine, TFA, Millipore, Billerica, Mass., USA) dosed at 30 mg/kg or vehicle (10% ethanol) was administered by intraperitoneally (i.p.) injections bis in die (b.i.d.) from days 3-5 after adenovirus. Mice were fasted overnight for glucose tolerance tests and given an i.p. injection of D-glucose ([…] for regular diet mice). For insulin tolerance tests, mice were fasted for 5 hours and given an i.p. injection of insulin (0.75 units/kg body weight). Blood samples were taken from the tail vein and measured with a glucometer. The mice were housed in a facility accredited by the American Association for Laboratory Animal Care. The Institutional Animal Care and Use Committee of the Beth Israel Deaconess Medical Center approved studies using animals.

## C3a: Recombinant C3a protein (R&D Systems); complement peptide, direct product of C3 convertase generated by adipsin
Murine islets; 0.25 mM tolbutamide, C3a 100 nM
  insulin secretion in conjunction with tolbutamide: further stimulated insulin secretion
Murine islets; 30 mM KCl, C3a 100 nM
  insulin secretion in conjunction with KCl: further stimulated insulin secretion
Murine islets; high glucose, 100 nM, acute
  enhancement of insulin secretion: 30-40%
Murine islets; islets from diabetic mice fed a HFD, 100 nM
  insulin secretion in diabetic islets: stimulated insulin secretion
Murine islets; low glucose, 100 nM
  enhancement of insulin secretion: not low
C3aR1 [1]
  C3a-mediated potentiation of glucose-stimulated insulin secretion: C3aR1 is required
Islets [2]; 20 mM glucose, acute C3a, versus control islets
  oxygen consumption with glucose challenge: increased oxygen consumption
Islets [2]; islets, C3a versus control
  ATP-coupled respiration: increases ATP-coupled respiration
Islets [3]; 3 mM glucose, C3a-treated versus control islets
  basal levels of [Ca2+]i: similar
Islets [3]; 20 mM glucose and KCl stimulation
  [Ca2+]i in response to glucose and KCl: potently augmented
Islets [3]; C3a-treated versus non-treated islets
  response times of [Ca2+]i: similar
Islets [3]; KCl stimulation
  increase of [Ca2+]i area under the curve: ~100%
  increase of peak [Ca2+]i: ~100%
Islets [3]; glucose stimulation (20 mM)
  increase of [Ca2+]i area under the curve: ~50%
  increase of peak [Ca2+]i: ~50%
Islets [3]; isolated islets perifused with glucose or KCl in the presence of C3a
  increases in [Ca2+]i: 50-100%

## N=C(N)NCCC[C@H](NC(=O)COCC(c1ccccc1)c1ccccc1)C(=O)O.O=C(O)C(F)(F)F [SB 290157, N^2-[(2,2-Diphenylethoxy)acetyl]-L-arginine, TFA]
C3aR1 [4]; db/db mice with adipsin adenovirus, antagonist 30 mg/kg i.p. b.i.d. for 3 days
  improvements in insulin secretion conferred by the adipsin adenovirus: nearly completely reversed
C3aR1 [4]; db/db mice with adipsin adenovirus, antagonist 30 mg/kg i.p. b.i.d. for 3 days, i.p. GTT
  improvements in glucose tolerance conferred by the adipsin adenovirus: nearly completely reversed
C3aR1 [4]; db/db mice, adipsin adenovirus plus SB 290157 30 mg/kg b.i.d. 3 days, i.p. glucose challenge
  insulin induction from time 0 to 20 minutes: 1.4 fold

B1: C5a: Recombinant C5a protein (R&D Systems), complement anaphylatoxin (protein, UniProt P01031 678-751, looked up)
C5a anaphylatoxin: TLQKKIEEIAAKYKHSVVKKCCYDGACVNNDETCEQRAARISLGPRCIKAFTECCVVASQLRANISHKDMQLGR
modifications: C5a anaphylatoxin
Murine islets; C5a 100 nM, GSIS
  enhancement of insulin secretion: did not show this effect
